One series has as its system peritoneal macrophages. As to the kind of experiment: ELISA for TNF-α and IL-6 on peritoneal macrophages from WT and TLR7−/− mice. Type of series: cell-based, mouse. Conditions: Dotap formulations of miRNA. The procedure:
(§1) Experiments were performed to determine whether the miRNA-TLR interaction is functional, and assessed whether the miRNAs of interest induce the secretion of cytokines such as TNF-α and IL-6, whose production is increased by TLR activation. We isolated peritoneal macrophages from WT and TLR7^−/− B6 mice. Cells were treated with Dotap alone or with Dotap formulations of miR-16, -21, -29a, and -147, and an ELISA for TNF-α and IL-6 was performed. In the functional assays, included also were miR-147 and -574-5p, because they have a mature viral-derived sequence that induces cytokine production through the activation of TLR8 and TLR7, similar to that of RNA33 (FIG. 14A). […] We also treated spleen cells from WT and TLR7^−/− mice with the same miRNAs and assessed expression of CD69, an early activation marker of cells which has a role in inflammation and proliferation and which also is activated by TLR3. Polyinosinic:polycytidylic acid [poly (I:C)], a known agonist of TLR3, served as positive control.
For all experiments, cells were treated with 15 μg of HPLC-purified synthetic miRNAs (Integrated DNA Technologies) complexed with Dotap Liposomal Transfection Reagent (Roche) as previously described.
Macrophages derived from the peritoneal cavity were isolated from WT and TLR7^−/− age- and sex-matched mice.
PBMC were isolated from heparinized blood of healthy donors by Ficoll-Paque (Pharmacia) centrifugation (500×g) following the manufacturer's instructions and were plated immediately for stimulation. Human PBMCs or murine peritoneal macrophages (300,000 cells) were stimulated with synthetic miRNAs for 24 h; then ELISAs for TNF-α and IL-6 were performed on the conditioned media using Multi-Analyte ELISArray Kits (SABiosciences) following the manufacturer's instructions.

For another series, the system named is spleen cells. As to the kind of experiment: Flow-cytometric analysis of CD69 in spleen cells of WT and TLR7−/− mice. As to conditions: cytofluorimetry. Type of series: cell-based, mouse. The procedure:
as §1
Total splenocytes derived from WT and TLR7^−/− age- and sex-matched mice were prepared by harvesting the spleen and preparing a single-cell suspension. Red blood cells were eliminated by osmotic lysis using red blood cell lysis buffer (eBioscience). […] Cells were stained with phycoerythrin-conjugated anti-CD69 (BioLegend) antibody and analyzed using FACSCalibur flow cytometer (Becton Dickinson).

The test system of series [1] is human peripheral blood mononuclear cells (PBMCs). Description: ELISA for TNF-α and IL-6 on human PBMCs. It counts as cell-based. Conditions: human PBMCs from two healthy donors, Dotap formulations. The procedure: To investigate whether miRNA-induced activation of TLRs also occurs in human cells, an NF-κB reporter assay was performed in HEK-293 cells. NF-κB, a transcription factor modulating the expression of several cytokine genes, is activated by several TLRs, including the only ssRNA-binding human TLRs, TLR7 and TLR8. Therefore, we treated HEK-293 cells expressing human TLR7 or TLR8 (hereafter, TLR7- and TLR8-HEK-293 cells, respectively) with Dotap alone or with Dotap formulations of miR-16, -21, -29a, or -147 and performed an NF-κB reporter assay. As positive controls Gardiquimod and ssRNA40 were used, specific agonists of TLR7 and TLR8, respectively. […] To confirm this conclusion, transfected were TLR8-HEK-293 cells with a plasmid encoding a dominant negative form of TLR8 (TLR8DN) and treated these cells with the miRNAs of interest. In TLR8DN cells, the activation of NF-κB by miR-21 and miR-29a was abolished (FIG. 3F). Also, incubated were TLR7- and TLR8-expressing human peripheral blood mononuclear cells (PBMCs) from two healthy donors with Dotap alone or Dotap formulations of miR-16, -21, -27b, -29a, -147, -574-5p, or ssRNA40 and an ELISA was performed for TNF-α and IL-6. With the exception of PBMCs treated with Dotap alone and with Dotap-miR-16, each of the other miRNAs and ssRNA40 induced the production of TNF-α and IL-6 (FIGS. 3G-3J). […]
In general terms: An ELISA detects its analyte on a solid surface through an enzyme-linked reagent.

[2] abbreviates: peritoneal macrophages of TLR7−/− B6 mice.
Where [3] appears, read: peritoneal macrophages of WT B6 mice.

On to “miR-147: synthetic mature miRNA (SEQ ID NO: 3), sequence similar to RNA33, Dotap formulation (GUGUGUGGAAAUGCUUCUGC; DOTAP formulation, further chemistry not given here)”, for which the IL-6 production result was “not” in the series with peritoneal macrophages (setting [2]) and “increased” with peritoneal macrophages (setting [3]). The TNF-α production entry is “not” in the series with peritoneal macrophages (setting [2]) and “increased” in the series on peritoneal macrophages (setting [3]). For the same substance, the values for the CD69 activation result in the series with spleen cells (spleen cells from TLR7−/− mice) and in the series on spleen cells (spleen cells from WT mice) were “not” and “induced”, respectively. Also, in series [1], the “production of IL-6” value is reported as “induced”. The “production of TNF-α” value in series [1] is given as “induced”.

The values above are taken from patent US9481885B2, “Methods and compositions related to miR-21 and miR-29a, exosome inhibition, and cancer metastasis” (Ohio State Innovation Foundation, priority 2011, dated 2016).
